Results on 3 compounds are retold here after patent publication US4810635A, “Specific binding assays employing label analog to reduce sample interferences” (Miles Inc., priority 1986, dated 1989).

The test system of assay [1] is riboflavin-binding monoclonal antibody (IgGλ monoclonal anti-flavin antibody) in the serum of a patient with multiple myeloma. The following applies: cited from earlier work; for binding to the antibody relative to riboflavin: competitive-binding studies with flavin analogs and [14C]-labeled riboflavin.
Another assay addresses apoglucose oxidase (Aspergillus niger, UniProt P13006). As to the kind of experiment: hCG ARIS assay: recombination of hCG-FAD conjugate with apoglucose oxidase, with or without FMN. The assay is classed as biochemical. Conditions: 10 μM FMN, 5 nM hCG-FAD conjugate, no serum. The method, then: In order to study the effect of flavin analogs in low level protein ARIS assays, a series of experiments were performed. In all cases the following manual assay protocol was employed. FAD-conjugate was incubated in 2.0 mL of assay mixture containing 10 mM DHSA, 0.1M glucose, 25 μg/mL horseradish peroxidase, 0.1% bovine serum albumin (BSA) in 0.1 M sodium phosphate at pH 7.0 with or without 5% serum and/or 10 μM FMN. After 30 minutes at 37° C., 100 μL of apoglucose oxidase/antiglucose oxidase (3 μM apoenzyme) in 50% glycerol and 4 μM 4-aminoantipyrene was added to initiate the reaction. Following a 30 minute assay incubation step at 37° C. the absorbance was measured at 520 nm.
Two controls were performed during this experiment: (1) conjugate, no serum, no FMN (maximum activity) and (2) conjugate, no serum, plus FMN (assess FMN effect on maximum activity).

apoglucose oxidase, sequence (P13006 23-605 limits assumed): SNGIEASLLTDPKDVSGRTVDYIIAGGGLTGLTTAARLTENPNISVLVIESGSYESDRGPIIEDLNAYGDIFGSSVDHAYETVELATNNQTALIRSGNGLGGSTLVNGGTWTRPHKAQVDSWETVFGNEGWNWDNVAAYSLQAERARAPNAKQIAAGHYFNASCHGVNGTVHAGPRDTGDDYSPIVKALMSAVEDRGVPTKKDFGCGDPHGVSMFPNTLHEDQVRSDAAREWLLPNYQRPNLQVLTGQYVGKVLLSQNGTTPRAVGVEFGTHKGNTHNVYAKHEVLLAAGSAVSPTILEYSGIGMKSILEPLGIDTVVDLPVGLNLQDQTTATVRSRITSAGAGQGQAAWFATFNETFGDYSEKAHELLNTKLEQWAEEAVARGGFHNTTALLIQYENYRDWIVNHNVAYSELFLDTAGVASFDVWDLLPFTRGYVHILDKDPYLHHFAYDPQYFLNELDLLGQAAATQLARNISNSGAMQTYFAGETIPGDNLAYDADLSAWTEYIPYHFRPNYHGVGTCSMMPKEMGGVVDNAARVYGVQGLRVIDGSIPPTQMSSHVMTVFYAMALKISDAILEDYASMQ

Consider `Cc1cc2nc3c(=O)[nH]c(=O)nc-3n(C[C@H](O)[C@H](O)[C@H](O)COP(=O)(O)OP(=O)(O)OC[C@H]3O[C@@H](n4cnc5c(N)ncnc54)[C@H](O)[C@@H]3O)c2cc1C` [FAD, flavin adenine dinucleotide], for which, in assay [1], the “binding to the antibody relative to riboflavin” value is “bound strongly to the antibody but not as tightly as FMN or riboflavin”.
In the case of `Cc1cc2nc3c(=O)[nH]c(=O)nc-3n(C[C@H](O)[C@H](O)[C@H](O)COP(=O)(O)O)c2cc1C` [FMN, flavin mononucleotide], in assay [1], the “binding to the antibody relative to riboflavin” value is reported as “bound equally well to this antibody as riboflavin”. For the same compound, the inhibition at 10 µM on apoglucose oxidase (read-out: decrease of the maximum activity of the conjugate) was around 9%. In addition, the activity at 10 µM on apoglucose oxidase (relative to conjugate without FMN (maximum activity)) came to 91%.
`Cc1cc2nc3c(=O)[nH]c(=O)nc-3n(C[C@H](O)[C@H](O)[C@H](O)CO)c2cc1C` [riboflavin]: in assay [1] (high affinity (reversible) flavin-binding site), the Kd (commonly the equilibrium constant for the complex coming apart) is 0.6 nM.
